Results published in patent US9371295B2, “Compounds for use in the treatment of disorders that are ameliorated by inhibition of HDAC” (IRBM—Science Park S.p.A., priority 2012, dated 2016).

Tests used:
HDAC1 = target: T1, HDAC1 (Homo sapiens, UniProt Q13547); test: HDAC1 assay (Fluor-de-Lys fluorescent deacetylase assay); format: biochemical; settings: read-out: hHDAC IC50
T1 construct: made in house
Procedure: The HDAC1 assay is used to quantify the histone deacetylase (HDAC) activity. The assay is performed in 384 well microtiter plates by pre-incubating serial dilutions of the compounds with a fixed concentration of HeLa nuclear extract or purified HDAC1 and then adding an acetylated lysine-containing substrate/developer that fluoresces upon deacetylation.
Reagents of the HDAC Fluorescent Activity Assay are purchased from BioMol Research Laboratories (Plymouth Meeting, Pa.) and feature the Fluor-de-Lys™ Substrate/Developer System.
TSA Stock: TSA is provided as a 10 mM stock solution in 100% dimethylsulfoxide (DMSO). […] The final concentration in the assay is 20 uM.
3 uM [final] TSA to this solution increases its ability to stop the reaction.
HDAC1 Working Solution: The HDAC1 enzyme is diluted in assay buffer prior to each use from a fresh aliquot of enzyme. The final concentration in the assay is 1-2 nM.
Compounds: Test compounds are directly transferred from a 100% DMSO solution into assay plates by spotting nanoliters of solutions by an acoustic dispenser (ATS-100, EDC biosystems, US).
HeLa cells transiently transfected with pCDNA3-HDAC1-FLAG are grown to 80% confluence on 10 cm culture dishes in DMEM, 10% Fetal bovine serum supplemented with antibiotics and glutamine. Cells are washed with 10 ml cold PBS and scraped into 2 ml of PBS. Cells are centrifuged for 5 minutes at 800×g at 4° C., washed with 30 ml PBS and resuspended in 10 ml PBS, counted, re-centrifuged and frozen at −80° C.
The frozen cell pellet is re-suspended in 1 ml of hypotonic lysis buffer (LB: 20 mM Hepes pH7.9, 0.25 mM EDTA, 10% glycerol) containing COMPLETE protease inhibitor and incubated on ice for 15 minutes, followed by homogenization on a 2-ml DounceB homogenizer (25 strokes). 150 mM KCl and 0.5% NP-40 are added to the homogenate and the solution is sonicated twice for 30 seconds (output5/6, duty cycle 90) and incubated for 1 hour at 4° C. After a 30 minutes centrifugation at 12000 rpm and 4° C. the supernatant (soluble extract) is collected and protein concentration is determined using the BIORAD assay.
Anti-FLAG M2 affinity resin (Sigma) is washed three times with TBS and twice with LB. 10 μl of the LB-washed resin/mg of protein (2-3 ug of Flagged-HDAC1) are added to the soluble extract (1 mL) and incubated overnight at 4° C. with gentle mixing. The resin is then collected by centrifugation, washed once with LB, twice with LB+0.1% NP40 and twice with elution buffer (50 mM Hepes pH 7.4, 5% glycerol, 100 mM KCl, 0.01% Triton X-100).
The concentration of purified HDAC is determined by Western blot analysis.

[1] = system: human γ-globin promoter (EGFP reporter) in K562 cells; test: HbF activation assay on K562 (EGFP/RFP reporter model system for screening of inducers of fetal hemoglobin); format: cell-based; settings: 60 hours
Text: In order to test several compounds, a model system was produced based on previous findings present in the literature. The K562 erythroid-like cell lines, isolated and characterized by Lozzio & Lozzio (Blood, 45(3), pp 321-334) from a patient with chronic myelogenous leukemia in blast crisis, have been extensively employed as a useful in vitro model to study the molecular mechanism(s) regulating the expression of embryonic and fetal human globin genes, as well as for screening of new differentiation-inducing compounds. A stable cell line where reporter genes encoding green EGFP and far-red fluorescent protein red-FP are placed under the control of the human γ-globin or β-globin promoters respectively was used (see Vadolas et al, Hum. Mol. Genet. 2004, 13, 2, 223-233 for details). The modified 3-cluster also contains the upstream regulatory region called LCR. This cell line grows in suspension at 37° C. and 5% CO2 in humidified atmosphere in the following medium: DMEM, 10% foetal bovine serum, glutamine and antibiotics (penicillin and streptomycin);
The assay procedures is as follows: • Single concentration compounds or serially diluted samples are transferred to an empty assay plates by a spotter (ATS-100, EDC Biosystems, USA) in order to have a final concentration of DMSO of 0.25% in 50 μL of cell culture. Source plats contains compounds dissolved in 100% DMSO • Black, transparent bottom, 384 wells, tissue culture treated plates are used as assay plates. • Assay plates containing spotted compounds are filled with a suspension of cell in the described assay medium. The final cell concentration is of 1000 cells per well. • Cells are incubated in humidified atmosphere, 37° C.-5% CO2, for 60 hours • Cell nuclei are stained by adding 10 ul (6 μM; 1 μM final) Hoechst 33342 (Life Technologies, USA) • The cell associated intensity is read by a plate based cytometer (ACUMEN explorer, TTP Labtech, UK) • The nuclei count is used to assess the cell proliferation/death and to normalize the total EGFP/RFP intensity. HbF Activation Assay in Human Cell Line K562
The compounds of the invention were tested in the HbF activation assay on K562, as model system for screening of potential inducers of fetal hemoglobin.

HDAC in Hela cells = test: HDAC Hela Cell Based assay

T1 sequence (Q13547 whole entry): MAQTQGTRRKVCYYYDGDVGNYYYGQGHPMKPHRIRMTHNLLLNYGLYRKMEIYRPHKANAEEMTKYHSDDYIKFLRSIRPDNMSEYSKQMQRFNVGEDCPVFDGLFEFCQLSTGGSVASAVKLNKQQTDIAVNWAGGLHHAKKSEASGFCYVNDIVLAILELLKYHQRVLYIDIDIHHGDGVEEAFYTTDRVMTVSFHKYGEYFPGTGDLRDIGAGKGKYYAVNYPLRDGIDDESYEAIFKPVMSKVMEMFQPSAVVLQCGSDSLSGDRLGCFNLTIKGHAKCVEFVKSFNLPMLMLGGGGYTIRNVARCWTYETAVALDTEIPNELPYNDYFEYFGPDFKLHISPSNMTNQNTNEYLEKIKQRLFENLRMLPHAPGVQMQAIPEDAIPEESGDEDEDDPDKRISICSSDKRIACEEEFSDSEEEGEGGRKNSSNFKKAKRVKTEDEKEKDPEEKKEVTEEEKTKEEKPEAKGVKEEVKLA

IC50 (HDAC1) [nM]	EC50 [1] [nM]	IC50 (HDAC in Hela cells) [nM]	SMILES
< 100	> 1000	100 to 1000	CCC(=O)CCCCC[C@H](NC(=O)C1CN(C)C1)c1ncc(-c2ccc(-c3ccc(OC)nc3)cc2)o1 [Compound 65, (S)-N-(1-(5-(4-(6-methoxypyridin-3-yl)phenyl)oxazol-2-yl)-7-oxononyl)-1-methylazetidine-3-carboxamide]
< 100	> 1000	100 to 1000	CCC(=O)CCCCC[C@H](NC(=O)[C@@H]1C[C@H](F)CN1C)c1ncc(-c2cc3ccccc3nc2OC)o1 [Compound 66, (2S,4S)-4-fluoro-N-((S)-1-(5-(2-methoxyquinolin-3-yl)oxazol-2-yl)-7-oxononyl)-1-methylpyrrolidine-2-carboxamide]
< 100	> 1000	100 to 1000	CCC(=O)CCCCC[C@H](NC(=O)C1(F)CCN(C)CC1)c1ncc(-c2cc3ccccc3nc2OC)o1 [Compound 68, (S)-4-fluoro-N-(1-(5-(2-methoxyquinolin-3-yl)oxazol-2-yl)-7-oxononyl)-1-methylpiperidine-4-carboxamide]
< 100	> 1000	100 to 1000	CCC(=O)CCCCC[C@H](NC(=O)C(=O)N1CCOCC1)c1ncc(-c2cc3ccccc3nc2OC)o1 [Compound 69, (S)-N-(1-(5-(2-methoxyquinolin-3-yl)oxazol-2-yl)-7-oxononyl)-2-morpholino-2-oxoacetamide]
< 100	> 1000	100 to 1000	CCC(=O)CCCCC[C@H](NC(=O)C1CN(C)C1)c1ncc(-c2cccc3cccnc23)o1 [Compound 70, (S)-1-methyl-N-(7-oxo-1-(5-(quinolin-8-yl)oxazol-2-yl)nonyl)azetidine-3-carboxamide]
< 100	> 1000	100 to 1000	CCC(=O)CCCCC[C@H](NC(=O)C1CN(C)C1)c1nnc(-c2cc3ccccc3n(C)c2=O)o1 [Compound 71, (S)-1-methyl-N-(1-(5-(1-methyl-2-oxo-1,2-dihydroquinolin-3-yl)-1,3,4-oxadiazol-2-yl)-7-oxononyl)azetidine-3-carboxamide]
< 100	100 to 1000	100 to 1000	CCC(=O)CCCCC[C@H](NC(=O)C1CNC(=O)C1)c1ncc(-c2cc3ccccc3nc2OC)o1 (stereo partly drawn) [Compound 72, N-((S)-1-(5-(2-methoxyquinolin-3-yl)oxazol-2-yl)-7-oxononyl)-5-oxopyrrolidine-3-carboxamide]
< 100	> 1000	100 to 1000	CCC(=O)CCCCC[C@H](NC(=O)Cc1c[nH]cn1)c1ncc(-c2cc3ccccc3nc2OC)o1 [Compound 73, (S)-2-(1H-imidazol-4-yl)-N-(1-(5-(2-methoxyquinolin-3-yl)oxazol-2-yl)-7-oxononyl)acetamide]
< 100	> 1000	100 to 1000	CCC(=O)CCCCC[C@H](NC(=O)Cc1cccnc1)c1ncc(-c2cc3ccccc3nc2OC)o1 [Compound 74, (S)-N-(1-(5-(2-methoxyquinolin-3-yl)oxazol-2-yl)-7-oxononyl)-2-(pyridin-3-yl)acetamide]
< 100	100 to 1000	100 to 1000	CCC(=O)CCCCC[C@H](NC(=O)CCn1ccnc1)c1ncc(-c2cc3ccccc3nc2OC)o1 [Compound 75, (S)-3-(1H-imidazol-1-yl)-N-(1-(5-(2-methoxyquinolin-3-yl)oxazol-2-yl)-7-oxononyl)propanamide]
< 100	> 1000	100 to 1000	CCC(=O)CCCCC[C@H](NC(=O)Cc1nccs1)c1ncc(-c2cc3ccccc3nc2OC)o1 [Compound 76, (S)-N-(1-(5-(2-methoxyquinolin-3-yl)oxazol-2-yl)-7-oxononyl)-2-(thiazol-2-yl)acetamide]
< 100	> 1000	100 to 1000	CCC(=O)CCCCC[C@H](NC(=O)Cc1nonc1C)c1ncc(-c2cc3ccccc3nc2OC)o1 [Compound 77, (S)-N-(1-(5-(2-methoxyquinolin-3-yl)oxazol-2-yl)-7-oxononyl)-2-(4-methyl-1,2,5-oxadiazol-3-yl)acetamide]
